Earlier results on 1 compound are cited in patent US20100111883A1, “CYCLODEXTRIN FORMULATIONS” (priority 2007, published 2010).

The conditions of data set [1]: HPBCD alone, through the skin; stated as typical.

Structures are written as SMILES.

For the compound `CC(O)COC[C@H]1O[C@@H]2O[C@H]3[C@H](O)[C@@H](O)[C@@H](O[C@H]4[C@H](O)[C@@H](O)[C@@H](O[C@H]5[C@H](O)[C@@H](O)[C@@H](O[C@H]6[C@H](O)[C@@H](O)[C@@H](O[C@H]7[C@H](O)[C@@H](O)[C@@H](O[C@H]8[C@H](O)[C@@H](O)[C@@H](O[C@H]1[C@H](O)[C@H]2O)O[C@@H]8COCC(C)O)O[C@@H]7COCC(C)O)O[C@@H]6COCC(C)O)O[C@@H]5COCC(C)O)O[C@@H]4COCC(C)O)O[C@@H]3COCC(C)O` (stereo partly drawn) [HPBCD, β-cyclodextrin, 2-hydroxypropyl ether], the water solubility result is on record as “freely water soluble”. Also, in data set [1], the skin penetration entry was “about 0.1%”.
